“And” between values parts separate entries of the source, which are not always exact repeats. Equal values may be shown once. Where a name gives a salt, the structure may show the parent alone. Read-outs that look alike come from different tables or passages of the source. One block for each compound: values may come before it.
Legend:
RelA = RelA (Homo sapiens, UniProt Q04206); test: DSE-FRET RelA–DNA binding inhibition; format: biochemical; set-up: Kinetic assay RelA Inhibition % ΔRFU(60 min-0 min) / RelA HTS % Inhibition / RelA Retest % Inhibition Run1 / RelA Retest % Inhibition Run2 / RelA Retest % Inhibition Avg. / Kinetic assay RelA % Inhibition ΔRFU(60 min-0 min): dose or concentration left out as unconfirmed
p52 = biological target: T1, p52 (Homo sapiens, UniProt Q00653); test: DSE-FRET p52–DNA binding inhibition; format: biochemical; set-up: p52 Retest % Inhibition Run2 / p52 Retest % Inhibition Avg. / Kinetic assay p52 Inhibition % ΔRFU(60 min-0 min) / p52 HTS % Inhibition / p52 Retest % Inhibition Run1: dose or concentration left out as unconfirmed; conditions: for p52 Retest % Inhibition Avg.: Retest average of Run1 and Run2
T1 sequence (Q00653 1-454 limits assumed): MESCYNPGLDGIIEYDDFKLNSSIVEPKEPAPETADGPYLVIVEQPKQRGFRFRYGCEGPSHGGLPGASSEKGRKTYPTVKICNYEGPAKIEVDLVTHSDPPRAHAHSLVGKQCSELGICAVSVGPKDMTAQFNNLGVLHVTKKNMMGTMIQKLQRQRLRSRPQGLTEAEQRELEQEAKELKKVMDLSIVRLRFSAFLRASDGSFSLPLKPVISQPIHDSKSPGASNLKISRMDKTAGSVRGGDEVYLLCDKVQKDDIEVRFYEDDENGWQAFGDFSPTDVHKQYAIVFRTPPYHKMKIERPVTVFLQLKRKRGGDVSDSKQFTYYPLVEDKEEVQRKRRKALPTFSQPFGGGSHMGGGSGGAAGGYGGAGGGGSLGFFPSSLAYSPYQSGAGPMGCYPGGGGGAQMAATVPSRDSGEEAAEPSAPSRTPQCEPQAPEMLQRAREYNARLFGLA

[1] = HTS, known drugs, 10 µM, read-out: RelA HTS % Inhibition @ 10 µM
[2] = kinetic assay, 60 min-0 min, 10 µM, read-out: Kinetic assay @ 10 µM RelA % Inhibition ΔRFU(60 min-0 min)
[3] = retest, Run1, 10 µM, read-out: RelA Retest % Inhibition @ 10 µM Run1
[4] = retest, Run2, 10 µM, read-out: RelA Retest % Inhibition @ 10 µM Run2
[5] = retest, average of Run1 and Run2, 10 µM, read-out: RelA Retest % Inhibition @ 10 µM Avg.
[6] = HTS, known drugs, 10 µM, read-out: p52 HTS % Inhibition @ 10 µM
[7] = kinetic assay, 60 min-0 min, 10 µM, read-out: Kinetic assay @ 10 µM p52 % Inhibition ΔRFU(60 min-0 min)
[8] = retest, Run1, 10 µM, read-out: p52 Retest % Inhibition @ 10 µM Run1
[9] = retest, Run2, 10 µM, read-out: p52 Retest % Inhibition @ 10 µM Run2
[10] = retest, average of Run1 and Run2, 10 µM, read-out: p52 Retest % Inhibition @ 10 µM Avg.
[11] = retest of known drugs, 1 = judged hit
[12] = HTS, 5 µg/mL, NPDepo hits, read-out: RelA HTS % Inhibition @ 5 µg/mL
[13] = Retest Run1, 5 µg/mL, read-out: RelA Retest % Inhibition @ 5 µg/mL Run1
[14] = Retest Run2, 5 µg/mL, read-out: RelA Retest % Inhibition @ 5 µg/mL Run2
[15] = Retest average of Run1 and Run2, 5 µg/mL, read-out: RelA Retest % Inhibition @ 5 µg/mL Avg.
[16] = kinetic assay, 5 µg/mL, ΔRFU 60 min-0 min, read-out: Kinetic assay @ 5 µg/mL RelA Inhibition % ΔRFU(60 min-0 min)

Chain of RelA (Q04206 19-306 limits assumed): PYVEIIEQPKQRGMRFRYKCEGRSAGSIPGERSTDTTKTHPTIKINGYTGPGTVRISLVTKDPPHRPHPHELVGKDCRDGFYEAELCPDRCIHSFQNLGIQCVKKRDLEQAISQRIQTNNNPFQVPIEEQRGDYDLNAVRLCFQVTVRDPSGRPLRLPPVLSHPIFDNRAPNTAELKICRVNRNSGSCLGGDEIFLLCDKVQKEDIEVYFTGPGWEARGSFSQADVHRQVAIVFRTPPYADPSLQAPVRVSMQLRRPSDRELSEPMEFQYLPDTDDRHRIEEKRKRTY

inhibition at 10 µM (RelA; [1]): 146%
inhibition at 10 µM (RelA; [2]): -12%
inhibition at 10 µM (RelA; [3]): 73.3%
inhibition at 10 µM (RelA; [4]): 82.1%
inhibition at 10 µM (RelA; [5]): 77.7%
inhibition at 10 µM (p52; [6]): 18.6%
inhibition at 10 µM (p52; [7]): -10%
inhibition at 10 µM (p52; [8]): 64.6%
inhibition at 10 µM (p52; [9]): 76.1%
inhibition at 10 µM (p52; [10]): 70.3%
Structure (SMILES): Cn1cc(C2=C(c3ccc(Cl)cc3Cl)C(=O)NC2=O)c2ccccc21 [SB 216763]

RelA HTS % Inhibition (RelA; HTS, known drugs): 34.4%
RelA Retest % Inhibition Run1 (RelA; Retest Run1): 48.4%
RelA Retest % Inhibition Run2 (RelA; Retest Run2): 67.6%
RelA Retest % Inhibition Avg. (RelA; Retest average of Run1 and Run2): 58.0%
Kinetic assay RelA % Inhibition ΔRFU(60 min-0 min) (RelA; kinetic assay, 60 min-0 min): 21%
Hit Judgement of: RelA (RelA; [11]): 1
p52 HTS % Inhibition (p52; HTS, known drugs): 38.2%
p52 Retest % Inhibition Run1 (p52): 22.0%
p52 Retest % Inhibition Run2 (p52): 33.7%
p52 Retest % Inhibition Avg. (p52): 27.8%
Kinetic assay p52 % Inhibition ΔRFU(60 min-0 min) (p52; kinetic assay, 60 min-0 min): 7%
Hit Judgement of: p52 (p52; [11]): 1
Structure (SMILES): CC1(C)C(=O)N=C2C1=C(O)C(=O)c1ccccc12 [BVT 948]

Structure (SMILES): CC(=O)Oc1cccc2c1C(=O)c1c(OC(C)=O)cc(C(=O)O)cc1C2=O [Diacerein]
inhibition at 10 µM (RelA; [1]): 97.4%
inhibition at 10 µM (RelA; [2]): 4%
inhibition at 10 µM (RelA; [3]): 51.6%
inhibition at 10 µM (RelA; [4]): 57.2%
inhibition at 10 µM (RelA; [5]): 54.4%
inhibition at 10 µM (p52; [6]): 72.2%
inhibition at 10 µM (p52; [7]): 3%
inhibition at 10 µM (p52; [8]): 46.8%
inhibition at 10 µM (p52; [9]): 54%
inhibition at 10 µM (p52; [10]): 50.4%

inhibition at 5 µg/mL (RelA; [12]): 116%
inhibition at 5 µg/mL (RelA; [13]): 135%
inhibition at 5 µg/mL (RelA; [14]): 149%
inhibition at 5 µg/mL (RelA; [15]): 142%
inhibition at 5 µg/mL (RelA; [16]): -84%
Structure (SMILES): COc1cc(/C=C/C(=O)CC(=O)/C=C/c2ccc(O)c(OC)c2)ccc1O [Curcumin]

Structure (SMILES): COc1cccc2c1C(=O)c1c(O)c3c(c(O)c1C2=O)C[C@@](O)(C(=O)CO)C[C@@H]3O[C@H]1C[C@H](N)[C@H](O)[C@H](C)O1 [Doxorubicin]
inhibition at 5 µg/mL (RelA; [12]): 70.5%
inhibition at 5 µg/mL (RelA; [13]): 69.2%
inhibition at 5 µg/mL (RelA; [14]): 78.3%
inhibition at 5 µg/mL (RelA; [15]): 73.8%
inhibition at 5 µg/mL (RelA; [16]): -12%

Structure (SMILES): COc1cccc2c1C(=O)c1c(O)c3c(c(O)c1C2=O)C[C@@](O)(C(C)=O)C[C@@H]3O[C@H]1C[C@H](N)[C@H](O)[C@H](C)O1 [Daunorubicin hydrochloride]
Kinetic assay p52 % Inhibition ΔRFU(60 min-0 min) (p52; kinetic assay, 60 min-0 min): -16% and -18%

Structure (SMILES): COc1cccc2c1C(=O)c1c(O)c3c(c(O)c1C2=O)C[C@@](O)(C(C)=O)C[C@@H]3O[C@H]1C[C@H](N)[C@H](O)[C@H](C)O1 [DAUNORUBICIN]
Kinetic assay p52 % Inhibition ΔRFU(60 min-0 min) (p52; kinetic assay, 60 min-0 min): -16%

Structure (SMILES): COc1cccc2c1C(=O)c1c(O)c3c(c(O)c1C2=O)C[C@@](O)(C(C)=O)C[C@@H]3O[C@H]1C[C@H](N)[C@H](O)[C@H](C)O1 [Daunorubicin(Daunomycin)]
p52 HTS % Inhibition (p52; HTS, NPDepo hits): 78.5%
p52 Retest % Inhibition Run1 (p52): 79.2%
p52 Retest % Inhibition Run2 (p52): 84.3%
p52 Retest % Inhibition Avg. (p52): 81.7%
Kinetic assay p52 Inhibition % ΔRFU(60 min-0 min) (p52; kinetic assay, ΔRFU 60 min-0 min): -7%

Kinetic assay @ 50 µM p52 Inhibition % ΔRFU(120 min-0 min) (p52; 96 well plate, 50 µM, 120 min-0 min): 73%
p52 HTS % Inhibition (p52; HTS, known drugs): 4.7%
p52 Retest % Inhibition Run1 (p52): 4.9%
p52 Retest % Inhibition Run2 (p52): 5.3%
p52 Retest % Inhibition Avg. (p52): 5.1%
Kinetic assay p52 % Inhibition ΔRFU(60 min-0 min) (p52; kinetic assay, 60 min-0 min): 7%
Structure (SMILES): Cc1ccc(C(=O)Nc2ccc(S(=O)(=O)[O-])c3cc(S(=O)(=O)[O-])cc(S(=O)(=O)[O-])c23)cc1NC(=O)c1cccc(NC(=O)Nc2cccc(C(=O)Nc3cc(C(=O)Nc4ccc(S(=O)(=O)[O-])c5cc(S(=O)(=O)[O-])cc(S(=O)(=O)[O-])c45)ccc3C)c2)c1.[Na+].[Na+].[Na+].[Na+].[Na+].[Na+] [Suramin hexasodium salt]

Structure (SMILES): COc1cccc2c1C(=O)c1c(O)c3c(c(O)c1C2=O)C[C@@](O)(C(C)=O)C[C@@H]3O[C@H]1C[C@H](N)[C@H](O)[C@H](C)O1 [Daunomycin]
inhibition at 5 µg/mL (p52; HTS, 5 µg/mL, NPDepo hits, read-out: p52 HTS % Inhibition @ 5 µg/mL): 77.8%
inhibition at 5 µg/mL (p52; Retest Run1, 5 µg/mL, read-out: p52 Retest % Inhibition @ 5 µg/mL Run1): 92.7%
inhibition at 5 µg/mL (p52; Retest Run2, 5 µg/mL, read-out: p52 Retest % Inhibition @ 5 µg/mL Run2): 99%
inhibition at 5 µg/mL (p52; Retest average of Run1 and Run2, 5 µg/mL, read-out: p52 Retest % Inhibition @ 5 µg/mL Avg.): 95.9%
inhibition at 5 µg/mL (p52; kinetic assay, 5 µg/mL, ΔRFU 60 min-0 min, read-out: Kinetic assay @ 5 µg/mL p52 Inhibition % ΔRFU(60 min-0 min)): -4.66%

suppression of p52–DNA binding (p52; HTS, 10 µM or 5 µg/mL): less than 10%
Structure (SMILES): Cc1ccc(C(=O)Nc2ccc(S(=O)(=O)O)c3cc(S(=O)(=O)O)cc(S(=O)(=O)O)c23)cc1NC(=O)c1cccc(NC(=O)Nc2cccc(C(=O)Nc3cc(C(=O)Nc4ccc(S(=O)(=O)O)c5cc(S(=O)(=O)O)cc(S(=O)(=O)O)c45)ccc3C)c2)c1 [Suramin, reference compound]
p52–DNA binding inhibition at 50 µM (p52; 96-well plates, 50 µM): inhibited both RelA–DNA and p52–DNA binding

Source: publication PMC7734590, “Identification of a Selective RelA Inhibitor Based on DSE-FRET Screening Methods” (International Journal of Molecular Sciences, 2020)
